Assay results from patent publication US20230413879A1, “FOOD COMPRISING ISOSTEVIOL AND USES THEREOF” (ISOFIRMS APS, priority 2020, published 2023).
Entries after “also recorded” stand apart in the source; their conditions may differ.

Legend:
pigs [1] = test: Pig feeding trial: growth rate / weight gain (Example 2); type: in vivo, pig (Danish Landrace); settings: for Average weight (kg) start: baseline; for Net growth vs. CG group / Net growth vs. CPG group: index; for Net growth vs. CG group: CG = 100; for Net growth vs. CPG group: CPG = 100; for Average weight (kg) Increase: start to week 8
Source text: Isosteviol in 97% purity was produced in-house. Isosteviol may be produced by acid-catalysed extraction of Stevia rebaudiana L. Preferably at a pH below 5.5.
The pigs were of the type Danish Landrace Age approx. 90 days, gender equally distributed. They weighted approximately 30 kg when delivered and had been fed with a normal conventional diet for piglets until delivery.
• Standard feed is home-blended by the farmer with the ratio: Wheat 55 w %, Barley 35 w %, Rye 10 w %. • Nutritional profile/100 g: • Nutritional content: 1313 KJ • Fat: 1.8 g • Carbohydrate: 68.9 g • Of which sugar: 1.4 g • Fibres: 15.8 g • Protein: 12.8 g • Supplementary feed: The Supplementary feed was distributed as a “Semi Soja 1920” composition (from DLG), which is a supplementary feed high in protein, carbohydrate, and free amino acids.
(§1) The pigs were randomly distributed in the five pigsties when trial started. Food and water were provided ad libitum (see Table 2). The farmer was not aware of which groups received which additional feed, since all feeds were masked to look the same and the CG group received a bag similar to the other groups.
Every other week the pigs were weighed, and their growth were noted. The pigs were attended too equally.
Timeframe: Trial started after delivery of the 30 kg pigs and was planned to end when the pigs weighed around 115-118 kg, the weight at trial-end was however around 120 kg (11 weeks). Total time for production is 72 days.
The food intake by each pig during the trial is described in Table 3.

pigs [2] = test: Overall uptake of feed judged by generated manure and stool analysis (Example 3); type: in vivo, pig (Danish Landrace)
Description: See example 1. Overall uptake of feed was determined by the amount of generated manure by the different groups.

pigs [3] = test: Stool firmness / diarrhea in pigs (Example 4); type: in vivo, pig (Danish Landrace); settings: groups receiving isosteviol (IPG and IG) compared to control groups (CG and CPG)
pigs [4] = test: Meat (muscle) percentage at slaughter, ultrasound Autoform (Example 5); type: in vivo, pig (Danish Landrace); settings: FIG. 5-6
Description: See also previous examples.
Meat percentage is measured when the pig is dead. The body is prepared and send to an automatic equipment that measures fat/meat thicknesses based on ultrasound measurements called an Autoform. The equipment is certified by third party and the meat percentages in this study was performed by Tican A/S at the slaughterhouse in Brdrup.
Increased meat (muscle) percentage can also be considered to correspond to an increased muscle/fat ratio.

pigs [5] = test: Turnover rate: days to grow pigs from approx. 30 kg to around 118 kg (Example 6); type: in vivo, pig (Danish Landrace)
Source text: See also previous examples. Turnover rates of the pigs was defined by the time (days) it takes to grow the pigs from approx. 30 kg to around 118 kg. Thus, turnover time is the time it takes to grow the pigs from approx. 30kg to their optimum slaughter weight. The faster the turnover rate is, the faster the pigs goes through the process and consequently this is the determination factor on how many pigs the farmer can deliver to the slaughterhouse within a year.

piglets [6] = test: Larger pig trial: body weight / weight gain (Example 8); type: in vivo, pig (DanBred x Duroc); settings: for weight gain versus negative control: week 3-6 and week 1-6 / 42 days trial; for Body weight [kg] Mean SD 0 / Body weight [kg] Median SD 0: baseline
Source text: (§2) Trial with 360 barrows and female piglets (DanBred×Duroc; initial BW of about 6.8 kg).
(§3) Age when trial started approx. 7 days and trial ended after 42 days. They weighed approx. 7 kg initially and have been feed as per normal conventional diet for piglets until delivery.
(§4) Basal diets as per standard industry feed: • Prestarter diet for post-weaning piglets: 7.0 to 9.0 kg BW • Starter diet for piglets: 9.0 to 15.0 kg BW • Grower diet for piglets: 15.0 to 30.0-35.0 kg BW.
(§5) Isosteviol >97% was produced in-house. Isosteviol may be produced by acid-catalysed extraction of Stevia rebaudiana L. Preferably at a pH below 5.5.
(§6) • Negative control: No isosteviol • Treatment 1 (IS10): 1% isosteviol mg/kg Bodyweight (BW) • Treatment 2 (IS13): 1.3% isosteviol mg/kg Bodyweight (BW)
(§7) The pigs were fed standard diets supplemented with Isosteviol as outlined above.
(§8) IsoSteviol Premix 0.71% was produced in Vilofoss Premix factory, and included at 0.29/0.37, 0.25/0.33% (by weight) in complete feed to reach 1/1.3 mg IsoSteviol/kg BW (bodyweight).
as §1, with “piglets” for “pigs”, “10” for “the five”, “pigsties per treatment” for “pigsties”, “libitum.” for “libitum (see Table 2).”, “control” for “CG”

piglets [7] = test: Larger pig trial: feed conversion ratio (FCR) (Example 8); type: in vivo, pig (DanBred x Duroc); settings: for Feed conversion ratio (FCR) versus negative control: 42 days trial
Source text: In this regard, the food/feed conversion ratio (FCR) is defined as the ratio between the amount of food eaten by an animal to the output produced by the animal (e.g. amount of meat produced by a pig, amount of milk produced by a cow etc.). Food that is efficiently taken up and converted by the body of the animal to said output obtains a FCR-value lower than a food having a low uptake in the animal. Thus, lower FCR-values are preferred for most applications. In some sectors, feed efficiency, which is the output divided by the input (i.e. the inverse of FCR), is used.
as §2, §3, §4, §5, §6, §7, §8
as §1, with “piglets” for “pigs”, “10” for “the five”, “pigsties per treatment” for “pigsties”, “libitum.” for “libitum (see Table 2).”, “control” for “CG”

broiler chickens = settings: cited from earlier work
[8] = IG group (standard feed incl. standard dose of supplementary feed + isosteviol 1 mg/kg/day), 8 pigs
[9] = IPG group (standard feed + additional 10 w % supplementary feed + isosteviol 1 mg/kg/day), 9 pigs
[10] = IG group (isosteviol only, 1 mg/kg/day)
[11] = IPG group (additional 10 w % supplementary feed + isosteviol 1 mg/kg/day)
[12] = Treatment 1 (IS10), 1 mg IsoSteviol/kg BW in feed
[13] = Treatment 2 (IS13), 1.3 mg IsoSteviol/kg BW in feed

Structure (SMILES): C[C@@]12CC[C@@H]3[C@@](CC[C@H]4[C@@]3(C)CCC[C@@]4(C)C(=O)O)(CC1=O)C2 [isosteviol]
- growth exceeding that of control group (CG) (pigs [1]; FIG. 1, Isosteviol and protein group (IPG) vs CG at index 100): 4.0%
- growth exceeding that of control+protein group (CPG) (pigs [1]; FIG. 2, Isosteviol and protein group (IPG) vs CPG at index 100): 5.8%
- growth exceeding that of control group (CG) (pigs [1]; FIG. 3, Isosteviol group (IG) vs CG at index 100): 0.8%
- Average weight (kg) week 8 (pigs [1]; [8]): 99.50 kg
- weight gain compared to the Control (CG) group (pigs [1]; IG group, FIG. 3, in words): clear increased weight gain
- Average weight (kg) week 8 (pigs [1]; [9]): 99.78 kg
- weight gain compared to the control group (CG) (pigs [1]; IPG group, FIG. 1, in words): clear increased weight gain
- weight gain compared to the CPG group (pigs [1]; IPG group, FIG. 2, in words): clear increased weight gain
- Average weight (kg) start (pigs [1]; [8]): 35.00 kg
- Average weight (kg) start (pigs [1]; [9]): 33.11 kg
- Net growth vs. CG group (pigs [1]; [10]): 100.8
- Net growth vs. CG group (pigs [1]; [11]): 104.0
- Net growth vs. CPG group (pigs [1]; [10]): 102.71
- Net growth vs. CPG group (pigs [1]; [11]): 105.80
- Average weight (kg) Increase (pigs [1]; [10]): 64.50 kg
- Average weight (kg) Increase (pigs [1]; [11]): 66.67 kg
- appearance of pigs noted by the farmer (muscle to fat ratio) (pigs [2]; IPG group compared to the control group): leaner and more firmly meaty
- overall uptake of the feed (amount of generated manure) (pigs [2]; isosteviol added to feed (IPG) vs CPG group, FIG. 4): higher overall uptake of the feed
- decrease of the amount of nutritional ingredients in stool (pigs [2]; preliminary stool analysis, considering the quantity of manure discharged, data not shown): approx. 6%
- stool firmness (pigs [3]): more firm; also recorded: much firmer stool
- meat (muscle) percentage / muscle/fat ratio (pigs [4]; IG group (isosteviol alone) vs control): very significant increase of the muscle weight; also recorded: increase
- meat (muscle) percentage / muscle/fat ratio (pigs [4]; IPG group (isosteviol + supplementary feed) vs control): increased their muscle/fat ratio to a significant degree; also recorded: increase
- increase of yearly turnover in production vs CG group (pigs [5]; IG group, data not shown): 0.1%
- increase of yearly turnover rate in production vs CG group (pigs [5]; IPG group, FIG. 8): around 4.8%
- weight gain versus negative control (piglets [6]; Treatment 1 (+Isosteviol), FIG. 10, p<0.0023): significant higher weight gain; also recorded: Observed relevant superiority, significant proven
- Body weight [kg] Mean SD 10 (piglets [6]; [12]): 11.568 kg
- Body weight [kg] Mean SD 21 (piglets [6]; [12]): 15.783 kg
- Body weight [kg] Mean SD 42 (piglets [6]; [12]): 32.660 kg
- Body weight [kg] Median SD 10 (piglets [6]; [12]): 11.550 kg
- Body weight [kg] Median SD 21 (piglets [6]; [12]): 15.900 kg
- Body weight [kg] Median SD 42 (piglets [6]; [12]): 33.200 kg
- weight gain versus negative control (piglets [6]; Treatment 2 (+Isosteviol), FIG. 11, p<0.0158): significant higher weight gain; also recorded: Observed relevant superiority, significant proven
- Body weight [kg] Mean SD 10 (piglets [6]; [13]): 11.574 kg
- Body weight [kg] Mean SD 21 (piglets [6]; [13]): 15.558 kg
- Body weight [kg] Mean SD 42 (piglets [6]; [13]): 32.293 kg
- Body weight [kg] Median SD 10 (piglets [6]; [13]): 11.500 kg
- Body weight [kg] Median SD 21 (piglets [6]; [13]): 15.600 kg
- Body weight [kg] Median SD 42 (piglets [6]; [13]): 32.000 kg
- Body weight [kg] Mean SD 0 (piglets [6]; [12]): 7.868 kg
- Body weight [kg] Median SD 0 (piglets [6]; [12]): 7.850 kg
- Body weight [kg] Mean SD 0 (piglets [6]; [13]): 7.865 kg
- Body weight [kg] Median SD 0 (piglets [6]; [13]): 7.875 kg
- Feed conversion ratio (FCR) versus negative control (piglets [7]; Treatment 1 (+Isosteviol), FIG. 12): significant decreased feed conversion ratio; also recorded: More than relevant superiority
- Feed Conversion Ratio (FCR) Mean SD 42 (piglets [7]; [12]): 1.399
- Feed Conversion Ratio (FCR) Median SD 42 (piglets [7]; [12]): 1.380
- Feed conversion ratio (FCR) versus negative control (piglets [7]; Treatment 2 (+Isosteviol), FIG. 13): significant decreased feed conversion ratio; also recorded: More than relevant superiority
- Feed Conversion Ratio (FCR) Mean SD 42 (piglets [7]; [13]): 1.393
- Feed Conversion Ratio (FCR) Median SD 42 (piglets [7]; [13]): 1.360

Structure (SMILES): C=C1C[C@@]23CC[C@H]4[C@@](C)(CCC[C@@]4(C)C(=O)O[C@@H]4O[C@H](CO)[C@@H](O)[C@H](O)[C@H]4O)[C@@H]2CC[C@]1(O[C@@H]1O[C@H](CO)[C@@H](O)[C@H](O)[C@H]1O[C@@H]1O[C@H](CO)[C@@H](O)[C@H](O)[C@H]1O)C3 [stevioside]
- effect on the broilers (broiler chickens; fed orally to broiler chickens): no positive effect
- abdominal fat content of the chicken (broiler chickens; in a diet for broilers): significantly increased
